Assay results reported in patent US9315494B2, “Alkyl-amide-substituted pyridyl compounds useful as modulators of IL-12, IL-23 and/or IFNα responses” (Bristol-Myers Squibb Company, priority 2012, dated 2016).
Read-outs that look alike come from different tables or passages of the source.

Assays:
[1] = test system: IFNα-stimulated STAT-dependent luciferase reporter in Kit225 T cells; experiment: Kit225 T cell assay, IFNα stimulated STAT-dependent luciferase reporter; format: cell-based, human
Summary of the method: (§1)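 Kit225 T cells carrying a stably integrated STAT-luciferase reporter, in RPMI with 10% heat-inactivated FBS, were stimulated with 20 ng/mL IL-23 or 200 U/mL IFNα for 5-6 h. Readout was luminescence from the luciferase reporter.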

[2] = test system: IL-23-stimulated STAT-dependent luciferase reporter in Kit225 T cells; experiment: Kit225 T cell assay, IL-23 stimulated STAT-dependent luciferase reporter; format: cell-based, human
Summary of the method: as §1

[3] = Kit225 T cells, 200 U/mL human recombinant IFNα, 5-6 hours, luciferase, read-out: IFNα (Kit225 T Cell Inhibition Data)
[4] = Kit225 T cells, 20 ng/mL human recombinant IL-23, 5-6 hours, luciferase, read-out: IL23 (Kit225 T Cell Inhibition Data)
[5] = Homo sapiens, KIT225, read-out: IFNα (Kit225 T Cell Inhibition Data)
[6] = Homo sapiens, KIT225, read-out: IL23 (Kit225 T Cell Inhibition Data)

Row | Compound | IC50 [1, 3] [nM] | IC50 [2, 4] [nM] | IC50 [1, 5] [nM] | IC50 [2, 6] [nM]
1 | CNC(=O)c1cnc(Nc2cccc(C(F)(F)F)n2)cc1Nc1ccc(Cl)cc1OC [Example 117] | 480 | 1980 | – | –
2 | CNC(=O)c1cnc(Nc2ccc(N3CCOCC3)cn2)cc1Nc1cc(S(C)(=O)=O)ccc1OC [Example 222] | 8390 | 8040 | – | –
3 | CNC(=O)c1cnc(Nc2cc(-n3ccccc3=O)ccn2)cc1Nc1cc(F)cc(F)c1OC [Example 167] | 310 | 510 | – | –
4 | CNC(=O)c1cnc(Nc2cc(C)c(F)cn2)cc1Nc1cccc(C(=O)NCCOC)c1OC [Example 352] | 20 | 20 | – | –
5 | CNC(=O)c1cnc(Nc2cc(C#N)ccn2)cc1Nc1ccc(F)cc1S(C)(=O)=O [Example 34] | 160 | 114 | – | –
6 | CCNC(=O)c1cccc(Nc2cc(Nc3cc(C)c(F)cn3)ncc2C(=O)NC)c1OC [Example 355] | 30 | 30 | – | –
7 | CNC(=O)c1cnc(Nc2cc(C(=O)N(C)C)ccn2)cc1Nc1cccc(F)c1OC [Example 277] | 240 | 270 | – | –
8 | CNC(=O)c1cnc(Nc2cc(-n3ccccc3=O)ccn2)cc1Nc1ccc(F)cc1OC [Example 168] | 1220 | 1420 | – | –
9 | [2H]C([2H])([2H])NC(=O)c1cnc(Nc2ccccn2)cc1Nc1cccc(-c2cnn(C)c2)c1OC [Example 398] | 20 | 20 | – | –
10 | CNC(=O)c1cnc(Nc2ccc(N3CCOCC3)cn2)cc1Nc1ccc(OC)cc1OC [Example 220] | 210 | 492 | – | –
11 | CNC(=O)c1cnc(Nc2cccc(OC)n2)cc1Nc1cc(F)cc(F)c1OC [Example 130] | 50 | 119 | – | –
12 | CNC(=O)c1cnc(Nc2cc(C)c(F)cn2)cc1Nc1cccc(C(=O)NCCC(C)(C)O)c1OC [Example 333] | 90 | 120 | – | –
13 | CNC(=O)c1cnc(Nc2ccc(F)cn2)cc1Nc1ccc(OC)cc1S(C)(=O)=O [Example 6] | 110 | 91 | – | –
14 | CNC(=O)c1cnc(Nc2cc(C)c(F)cn2)cc1Nc1cccc(C(=O)NCc2c[nH]c3ccccc23)c1OC [Example 353] | 160 | 250 | – | –
15 | CCOc1ccc(OCC)c(Nc2cc(Nc3ccc(N4CCOCC4)cn3)ncc2C(=O)NC)c1 [Example 229] | 260 | 310 | – | –
16 | CNC(=O)c1cnc(Nc2ncccc2F)cc1Nc1ccccc1C(N)=O [Example 69] | 1310 | 1470 | – | –
17 | CNC(=O)c1cnc(Nc2ccc(C#N)cn2)cc1Nc1cc(F)cc(F)c1OC [Example 145] | 420 | 794 | – | –
18 | CNC(=O)c1cnc(Nc2ccc(N3CCC(C)(O)CC3)cn2)cc1Nc1ccccc1S(C)(=O)=O [Example 436] | 120 | 240 | – | –
19 | CNC(=O)c1cnc(Nc2cc(C)nc(C)n2)cc1Nc1cccc(-c2nc(C)n(CC(F)(F)F)n2)c1OC [Example 370] | – | – | 30 | 30
20 | CNC(=O)c1cnc(Nc2cc(F)ccn2)cc1Nc1ccccc1NS(C)(=O)=O [Example 427] | 150 | 140 | – | –
21 | CNC(=O)c1cnc(Nc2cc(C)c(F)cn2)cc1Nc1cccc(-c2nnc(C)[nH]2)c1OC [Example 364, 6-((5-fluoro-4-methylpyridin-2-yl)amino)-4-((2-methoxy-3-(5-methyl-4H-1,2,4-triazol-3-yl)phenyl)amino)-N-methylnicotinamide] | 10 | 10 | – | –
22 | CNC(=O)c1cnc(Nc2ccc(F)cn2)cc1Nc1ccc(C(=O)N2CCCCC2)cc1C [Example 235] | 700 | 1420 | – | –

Row | Compound | IC50 [1, 3] [nM] | IC50 [2, 4] [nM] | IC50 [1, 5] [nM] | IC50 [2, 6] [nM]
23 | CNC(=O)c1cnc(Nc2cc(C)nc(C)n2)cc1Nc1cccc(-c2ccnn2C)c1OC [Example 394] | 30 | 80 | – | –
24 | CNC(=O)c1cnc(Nc2ccc(F)cn2)cc1Nc1ccc(C(N)=O)cc1OC [Example 233] | 870 | 1370 | – | –
25 | CNC(=O)c1cnc(Nc2cc(C(=O)NCCOC)ccn2)cc1Nc1ccc(F)cc1OC [Example 271] | 820 | 1180 | – | –
26 | CNC(=O)c1cnc(Nc2cc(C(=O)N3CCCC3)ccn2)cc1Nc1ccc(F)cc1OC [Example 268] | 740 | 785 | – | –
27 | [2H]C([2H])([2H])NC(=O)c1cnc(Nc2cc(C)c(F)cn2)cc1Nc1cccc(-c2cnn(C)c2)c1OC [Example 399] | 50 | 50 | – | –
28 | CNC(=O)c1cnc(Nc2ccccn2)cc1Nc1ccccc1NS(C)(=O)=O [Example 428] | 110 | 90 | – | –
29 | CNC(=O)c1cnc(Nc2ccc(C#N)cn2)cc1Nc1ccc(F)cc1OC [Example 124] | 640 | 462 | – | –
30 | CNC(=O)c1cnc(Nc2ccc(F)cn2)cc1Nc1ccc(F)cc1 [Example 196] | 6970 | 4380 | – | –
31 | CNC(=O)c1cnc(Nc2cc(C)c(F)cn2)cc1Nc1cccc(C(=O)NCCCO)c1OC [Example 348] | 180 | 430 | – | –
32 | CNC(=O)c1cnc(Nc2cc(C)c(F)cn2)cc1Nc1ccc(C(=O)N(C)C)cc1S(C)(=O)=O [Example 412] | 240 | 450 | – | –
33 | CNC(=O)c1cnc(Nc2ccc(C(F)(F)F)cn2)cc1NC1CCCCC1C(N)=O (stereo not drawn) [Example 290] | 6590 | 11400 | – | –
34 | CNC(=O)c1cnc(Nc2ccc(N3CCOCC3)cn2)cc1Nc1ccc(F)cc1O [Example 227] | 3240 | 4600 | – | –
35 | CNC(=O)c1cnc(Nc2cc(C)c(F)cn2)cc1Nc1cccc(-c2ncn(C)n2)c1OC [Example 371] | 3.99 | 4.89 | – | –
36 | CNC(=O)c1cnc(Nc2ccc(F)cn2)cc1Nc1ccc(C(=O)N2CCCC2)cc1OC [Example 248] | 250 | 504 | – | –
37 | CNC(=O)c1cnc(Nc2cc(C)c(C#N)c(C)n2)cc1Nc1ccc(F)cc1OC [Example 163] | 230 | 306 | – | –
38 | CNC(=O)c1cnc(Nc2cc(C)nc(C)n2)cc1Nc1cccc(-c2nc(C)n(C)n2)c1OC [Example 366] | 9.22 | 20 | – | –
39 | CNC(=O)c1cnc(Nc2ccc(F)cn2)cc1Nc1ccc(F)cc1OCF [Example 151] | 240 | 1140 | – | –
40 | CNC(=O)c1cnc(Nc2ccc(F)cn2)cc1Nc1ccc(C(=O)N2CC(F)(F)C2)cc1S(C)(=O)=O [Example 308] | 1160 | 1860 | – | –
41 | CNC(=O)c1cnc(Nc2cccc(C)n2)cc1Nc1ccc(Cl)cc1OC [Example 109] | 210 | 948 | – | –
42 | CNC(=O)c1cnc(Nc2ccc(F)cn2)cc1Nc1ccccc1 [Example 184] | – | – | 4110 | 7980
43 | CNC(=O)c1cnc(Nc2ccc(C(=O)N(C)C)cn2)cc1Nc1ccc(Cl)cc1OC [Example 262] | 410 | 727 | – | –
44 | CNC(=O)c1cnc(Nc2ccc(C#N)c(C)n2)cc1Nc1cc(F)cc(F)c1OC [Example 139] | 180 | 367 | – | –

Continued, in another order:

Row | IC50 [1, 3] [nM] | IC50 [2, 4] [nM] | Compound | IC50 [1, 5] [nM] | IC50 [2, 6] [nM]
45 | 30 | 80 | CNC(=O)c1cnc(Nc2cc(C)nc(C)n2)cc1Nc1cccc(-c2ncnn2CC(F)F)c1OC [Example 379] | – | –
46 | 30 | 50 | CCCNC(=O)c1cccc(Nc2cc(Nc3cc(C)c(F)cn3)ncc2C(=O)NC)c1OC [Example 339] | – | –
47 | 120 | 158 | CNC(=O)c1cnc(Nc2cc(C)ccn2)cc1Nc1ccc(F)c(F)c1OC [Example 100] | – | –
48 | 1530 | 3420 | CNC(=O)c1cnc(Nc2ccc(C(F)(F)F)cn2)cc1Nc1cc(F)cc(F)c1OC [Example 135] | – | –
49 | 80 | 80 | CNC(=O)c1cnc(Nc2cc(C)c(F)cn2)cc1Nc1cccc(C(=O)NCC(C)C)c1OC [Example 350] | – | –
50 | 410 | 625 | CCN(CC)C(=O)c1ccc(Nc2cc(Nc3ccc(F)cn3)ncc2C(=O)NC)c(OC)c1 [Example 240] | – | –
51 | 240 | 502 | CNC(=O)c1cnc(Nc2ccccn2)cc1Nc1ccccc1C(N)=O [Example 68] | – | –
52 | 200 | 433 | CNC(=O)c1cnc(Nc2cc(C(=O)NC3CC3)ccn2)cc1Nc1ccc(Cl)cc1OC [Example 259] | – | –
53 | 90 | 157 | CNC(=O)c1cnc(Nc2cc(C#N)ccn2)cc1Nc1ccc(F)cc1OCF [Example 166] | – | –
54 | 700 | 830 | CNC(=O)c1cnc(Nc2ccc(-n3cc(F)ccc3=O)cn2)cc1Nc1ccc(F)cc1OC [Example 126] | – | –
55 | 430 | 1820 | CNC(=O)c1cnc(Nc2ccc(C#N)c(C)n2)cc1Nc1ccccc1C(N)=O [Example 86] | – | –
56 | 2900 | 2580 | CNC(=O)c1cnc(Nc2ccc(F)cn2)cc1Nc1ccccc1C1CC1 [Example 185] | – | –
57 | 470 | 852 | CNC(=O)c1cnc(Nc2ccc(N3CCCC3=O)cn2)cc1Nc1ccc(F)cc1OC [Example 127] | – | –
58 | 80 | 40 | CNC(=O)c1cnc(Nc2cc(C)c(F)cn2)cc1Nc1ccccc1S(N)(=O)=O [Example 431] | – | –
59 | 720 | 1650 | CNC(=O)c1cnc(Nc2cccc(C(F)(F)F)n2)cc1Nc1ccc(F)cc1OC [Example 156] | – | –
60 | 1760 | 2400 | CNC(=O)c1ccc(Nc2cc(Nc3ccc(Cl)cc3OC)c(C(=O)NC)cn2)nc1 [Example 260] | – | –
61 | 5300 | 4530 | CNC(=O)c1cnc(Nc2ccc(F)cn2)cc1Nc1ccc(C2CC2)cc1 [Example 198] | – | –
62 | 460 | 215 | CNC(=O)c1cnc(Nc2ccc(C#N)cn2)cc1Nc1ccc(F)cc1OCF [Example 162] | – | –
63 | 10200 | 7940 | CNC(=O)c1cnc(Nc2ccc3ccccc3n2)cc1NC1CCC(F)CC1 (stereo not drawn) [Example 287] | – | –
